Results as given in patent publication US6897319B2, “Useful aroyl pyrrole heteroaryl methanones and methanols” (Ortho-McNeil Pharmaceutical, Inc., priority 2001, dated 2005).

Experiments:
[1] = system: voltage-gated sodium channels; experiment: Fluorometric membrane potential assay in SK-N-SH cells (veratridine stimulus, FLIPR); format: cell-based; conditions: 10 μM compound, 5 μM veratridine
Experimental: Screening Assay for Voltage-Gated Sodium Channel Antagonists Fluorometric Membrane Potential Assay
(§1) SK-N-SH neuroblastoma cells were maintained in a propagation medium containing modified Eagle's medium and 10% (v/v) fetal bovine serum and were incubated at 37° C. in a 5% CO2 atmosphere. Only cells with fewer than 20 passages were used in each assay. All drugs were prepared in DMSO, and the final concentration of solvent was less than 0.1% (v/v). Veratridine, a toxin that selectively promotes persistent activation of voltage-gated sodium channels, served as the stimulus. 24 hr prior to testing, 1×10^5 cells/well were plated into 96-well plates specifically designed for use in a fluorescent imaging plate reader (FLIPR) (Molecular Devices, Sunnyvale, Calif.)
Prior to screening, monolayers of cells were loaded with 100 μL/well of a proprietary voltage-sensitive dye (Molecular Devices, Sunnyvale, Calif.) for 30 min at 37° C. After this incubation period, the cells were stimulated with 5 μM veratridine in the presence or absence of investigational compounds (prepared at a final concentration of 10 μM in DMSO). A sample containing 5 μM veratridine and 10 μM tetrodotoxin accounted for nonspecific activity. The fluorescence was monitored by the FLIPR (Molecular Devices) from 10 sec prior to drug addition (50 μL) to 170 sec after drug addition at 25° C. During sodium channel activation, the cells depolarize and the dye associates with cell membranes, resulting in increased fluorescence.

[2] = system: voltage-gated sodium channels; experiment: [14C]guanidinium flux assay in SK-N-SH cells (veratridine stimulus); format: cell-based; conditions: 10 μM compound, 100 μM veratridine
Experimental: Screening Assay for Voltage-Gated Sodium Channel Antagonists [^14C] Guanidinium Flux Assay
as §1, with “stimulus.” for “stimulus. 24 hr prior to testing, 1×10^5 cells/well were plated into 96-well plates specifically designed for use in a fluorescent imaging plate reader (FLIPR) (Molecular Devices, Sunnyvale, Calif.)”
SK-N-SH cells were plated at 1×10^5 cells/well in 96-well Cytostar-T microscintillating plates in propagation medium and experiments were performed 6-7 days after plating. Prior to assay, the SK-N-SH cells were washed twice with assay buffer containing 50 mM HEPES (pH 7.45), 5.4 mM potassium chloride, 0.8 mM magnesium chloride, 130 mM choline chloride, 5.5 mM glucose and 0.1 mg/mL bovine serum albumin. Next, the plates were allowed to equilibrate for 10 min at 37° C. in assay buffer. After this incubation period, the cells were stimulated with 100 μM veratridine in the presence or absence of investigational compounds prepared in a 96-well plate (prepared at a final concentration of 10 μM in DMSO). The 96-well dosing plate was prepared by mixing 25 μL of a drug/assay buffer solution per well with 25 μL of 0.7 μCi/mL [^14C]guanidine hydrochloride in assay buffer. 50 μL aliquots from the dosing plate were then added to the cells. One sample containing 100 μM veratridine and 10 μM tetrodotoxin accounted for nonspecific activity. The plates were incubated for 1 hr at room temperature and the radioactivity was counted in a 1450 Microbeta scintillation counter.

[3] = system: mechanical allodynia after L5 spinal nerve ligation; experiment: Chung Model (spinal nerve ligation) antiallodynic effect; format: in vivo; conditions: po; rat, orally administered
From the text: Procedure for Testing Antiallodynic Effect
The procedure used to detect the antiallodynic effect of a compound of the present invention for which there is a good correlation with human efficacy for the treatment of pain is the procedure for the measurement of allodynia found in the Chung Model (Kim S. H. and Chung J. M., An Experimental Model for Peripheral Neuropathy Produced by Segmental Spinal Nerve Ligation in the Rat, Pain, 1992, 50, 355-363). The antiallodynic effect of the composition of the present invention in the Chung Model is expressed in % MPE (Maximum Possible Effect).
Male Sprague-Dawley rats, weighing approximately 200 g each were anesthetized with isoflurane. The spinal nerve at the level of L5 was exposed through an incision just left of the dorsal midline and tightly ligated with 6-0 silk. At various times after surgery, animals were tested for mechanical allodynia with von Frey hairs (monofilaments which are calibrated to bend under a certain amount of pressure, ranging from 0.41 to 15.1 g). In order to calculate a paw withdrawal threshold (PWT), tactile allodynia was measured by recording the pressure at which the affected paw was withdrawn from graded stimuli according to the procedure of S. R. Chaplan, J. W. Pogrel, T. L. Yaksh, Role of Voltage-Dependent Calcium Channel Subtypes in Experimental Tactile Allodynia, J. Pharmacol. Exp. Ther., 1994, 269, 1117-1123. Normal rats can withstand at least 15 g of pressure without responding. Operated rats, however, can respond to as little as 0.25 g of pressure. The surgery was deemed successful if the animal responded with a PWT of less than 4 g of pressure applied to the affected paw. […] The PWT was used to calculate the % maximal possible effect (% MPE) according to the formula: %MPE=100×[(PWT−CT)/(CO−CT)]; wherein PWT is defined as Paw Withdrawal Threshold, CT is Control Threshold, and CO is Cut Off (defined as 15 g).
The sham operation consisted of a similar surgery; the spinal nerve was visualized without being ligated.
Compounds selected from Formula (I) and Formula (II) were tested for activity in treating or modulating neuropathic pain by being dissolved or suspended in either water or hydroxypropyl methylcellulose, respectively. Postoperative animals between 14 to 42 days were fasted overnight prior to dosing. Animals were orally dosed and dosage volumes were calculated on a 4 mL/kg basis.

Cn1cc(C(=O)c2ccncc2)cc1C(=O)c1ccc(Cl)cc1 [Cpd 1, [5-(4-Chlorobenzoyl)-1-methyl-1H-pyrrol-3-yl]pyridin-4-ylmethanone]
% FI at 10 μM (% fluorescence inhibition) [1]: 32% | % GFI at 10 μM (% guanidinium flux inhibition) [2]: 23% | ED50 [3]: 22 mg/kg
